From PubChem BioAssay (NCI) come the findings set out here.

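Five compound concentrations were applied to cells in 96-well plates for 48 hours; endpoints were derived by simple linear interpolation of the resulting dose-response curve. Here, GI50 denotes the concentration required for 50% inhibition of growth. At the TGI there is no net growth.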

Among the test systems are OVCAR-8 ovarian; SR leukemia; MCF7 breast; A498 renal; CAKI-1 renal; RPMI-8226 leukemia; MDA-N; HCC-2998 colon; PC-3 prostate; A549 NSCLC.
Common to all, as to assay: inhibition of tumour cell growth, NCI panel, 48 h

For the compound `CCCC(CC)c1c(O)c(O)c(C(CC)CCC)c(C(CC)CCC)c1C(CC)CCC` (configuration not stated), the TGI in the assay on OVCAR-8 ovarian, with SR leukemia, with MCF7 breast, in the assay on A498 renal, in the assay on CAKI-1 renal and in the assay with RPMI-8226 leukemia was more than 10 µM each time. The TGI in the assay with MDA-N, in the assay on HCC-2998 colon, with PC-3 prostate and with A549 NSCLC was more than 10 µM in each case.

Turning to `Cc1cccc2nc3cccc(C(=O)NCCC[N+](C)(CCCNC(=O)c4cccc5nc6cccc(C)c6nc45)Cc4c([N+](=O)[O-])ncn4C)c3nc12`, the GI50 with OVCAR-8 ovarian was 4.44 µM; in the assay with MCF7 breast it was 2.34 µM; with A498 renal, more than 1100 µM; in the assay with CAKI-1 renal, 107 µM; with MDA-N, 18.1 µM; with PC-3 prostate, 6.47 µM. In addition, the GI50 in the assay on A549 NSCLC was 8.19 µM. The TGI with OVCAR-8 ovarian is more than 1100 µM; in the assay on SR leukemia, more than 1100 µM; in the assay with MCF7 breast, 96.9 µM; in the assay with A498 renal it was more than 1100 µM; with CAKI-1 renal, more than 1100 µM; in the assay on RPMI-8226 leukemia, 0.521 µM. Moreover, the TGI in the assay on MDA-N was more than 1100 µM; in the assay on HCC-2998 colon, 790 µM; in the assay on PC-3 prostate it was more than 1100 µM; in the assay on A549 NSCLC it was more than 1100 µM.

For `O=c1[nH]c2ccccc2nc1/C=C(\O)C(F)F`, the TGI in the assay on OVCAR-8 ovarian, in the assay on SR leukemia, with MCF7 breast, in the assay on A498 renal, with CAKI-1 renal and in the assay with RPMI-8226 leukemia was more than 100 µM in each case. For the same compound, the TGI in the assay with MDA-N, in the assay on HCC-2998 colon, in the assay on PC-3 prostate and with A549 NSCLC was more than 100 µM throughout.

Take `O=C(/C=C/c1ccc(-c2ccccc2)cc1)NCc1ccc(C(=O)NCCc2c[nH]c3ccccc23)cc1`: the TGI with OVCAR-8 ovarian was more than 100 µM; with SR leukemia, more than 100 µM; in the assay with MCF7 breast it was more than 100 µM; in the assay with A498 renal it was 80.4 µM; with CAKI-1 renal it was 40.7 µM; in the assay with RPMI-8226 leukemia, more than 100 µM. Moreover, the TGI was more than 100 µM with MDA-N, more than 100 µM in the assay with HCC-2998 colon, more than 100 µM in the assay on PC-3 prostate and 60.4 µM in the assay with A549 NSCLC.

Take `O=C1C=C2CO[C@H]3OC[C@H](O)[C@@H]1[C@@H]23`: the TGI was more than 100 µM in the assay on OVCAR-8 ovarian; 63.1 µM in the assay on SR leukemia; more than 100 µM with MCF7 breast; more than 100 µM in the assay on A498 renal; 89 µM in the assay with CAKI-1 renal; 44.8 µM with RPMI-8226 leukemia. Also, the TGI with MDA-N, in the assay on HCC-2998 colon, in the assay on PC-3 prostate and in the assay with A549 NSCLC was more than 100 µM each time.

Turning to `Cc1ccc(NC(=S)Nc2c(C)n(C)n(-c3ccccc3)c2=O)cc1`, the TGI with OVCAR-8 ovarian, with SR leukemia, with MCF7 breast, in the assay with A498 renal, in the assay with CAKI-1 renal and in the assay with RPMI-8226 leukemia was more than 100 µM throughout. The TGI in the assay with MDA-N, in the assay on HCC-2998 colon, in the assay on PC-3 prostate and in the assay with A549 NSCLC was more than 100 µM each time.

On to `COCN1CCN=c2c1c1c3c(c4ccccc4n23)CCC1`, for which the TGI in the assay with OVCAR-8 ovarian, with SR leukemia, with MCF7 breast, in the assay with A498 renal, in the assay on CAKI-1 renal and in the assay with RPMI-8226 leukemia was more than 100 µM each time. In addition, the TGI in the assay with MDA-N, in the assay with HCC-2998 colon, in the assay on PC-3 prostate and in the assay on A549 NSCLC was more than 100 µM throughout.

Turning to `O=C(CN1CCCCC1)c1ccc2c(c1)Sc1ccccc1O2`, the TGI in the assay with OVCAR-8 ovarian is 33.2 µM; in the assay with SR leukemia, 75.1 µM; in the assay on MCF7 breast, 30.9 µM; with A498 renal it was 39.3 µM; in the assay on CAKI-1 renal, 37.2 µM; in the assay on RPMI-8226 leukemia, more than 100 µM. The TGI in the assay on MDA-N worked out at 34.5 µM; in the assay on HCC-2998 colon it was 37 µM; in the assay on PC-3 prostate it was 24.4 µM; with A549 NSCLC it was 29.1 µM.

`N#Cc1c(N2CCCC2)ncn(Cc2ccccc2)c1=S`: the TGI in the assay with OVCAR-8 ovarian, in the assay on SR leukemia, in the assay with MCF7 breast, in the assay on A498 renal, in the assay with CAKI-1 renal and in the assay with RPMI-8226 leukemia was more than 100 µM throughout. Further, the TGI in the assay with MDA-N, with HCC-2998 colon, with PC-3 prostate and with A549 NSCLC was more than 100 µM throughout.

In the case of `C=C1C(=O)O[C@H]2C/C(C)=C/CC/C(C)=C/CC[C@@](C)(O)[C@@H](I)C[C@@H]12`, the TGI with OVCAR-8 ovarian is 5.74 µM; in the assay with SR leukemia it was 11.8 µM; with MCF7 breast, 25.1 µM; with A498 renal it was 32 µM; in the assay on CAKI-1 renal, 22.4 µM; in the assay on RPMI-8226 leukemia, 12.9 µM. In addition, the TGI stood at 13.3 µM with MDA-N, 25.6 µM in the assay with HCC-2998 colon, 21.1 µM with PC-3 prostate and 24.8 µM in the assay with A549 NSCLC.

As for `CC(C)[C@H]1NC(=O)[C@H]2N=C(O[C@@H]2C)[C@@H]2CCCN2C(=O)[C@H](Cc2ccccc2)NC(=O)[C@@H]2CSC(=N2)[C@@H](Cc2ccccc2)NC(=O)[C@@H]2CSC1=N2`, the TGI with OVCAR-8 ovarian is more than 100 µM; with SR leukemia, more than 100 µM; in the assay with MCF7 breast it was more than 100 µM; with A498 renal, more than 100 µM; in the assay on CAKI-1 renal, more than 100 µM; with RPMI-8226 leukemia, 94.9 µM. For the same compound, the TGI with MDA-N, with HCC-2998 colon, with PC-3 prostate and in the assay on A549 NSCLC was more than 100 µM throughout.

Turning to `N#CC(C#N)=Cc1c(O)ccc2ccccc12`, the TGI turned out to be 36.4 µM in the assay with OVCAR-8 ovarian; 13.6 µM in the assay with SR leukemia; 34.3 µM with MCF7 breast; 31.1 µM in the assay with A498 renal; 29.1 µM in the assay with CAKI-1 renal; 38.6 µM in the assay on RPMI-8226 leukemia. The TGI in the assay on MDA-N amounted to 30.5 µM; with HCC-2998 colon it was 33.1 µM; in the assay with PC-3 prostate, 33.6 µM; in the assay on A549 NSCLC, 38 µM.

Turning to `CC(NC1=NCCO1)c1cccc([N+](=O)[O-])c1` (configuration not stated), the TGI in the assay with OVCAR-8 ovarian, with SR leukemia, in the assay on MCF7 breast, with A498 renal, in the assay with CAKI-1 renal and in the assay on RPMI-8226 leukemia was more than 100 µM in each case. Moreover, the TGI in the assay on MDA-N, in the assay with HCC-2998 colon, in the assay with PC-3 prostate and in the assay with A549 NSCLC was more than 100 µM each time.

For `COC(=O)c1ccccc1C#CCCCOS(C)(=O)=O`, the TGI in the assay with OVCAR-8 ovarian, in the assay on SR leukemia, in the assay with MCF7 breast, in the assay on A498 renal, in the assay with CAKI-1 renal and in the assay with RPMI-8226 leukemia was more than 10 µM each time. For the same compound, the TGI in the assay on MDA-N, in the assay on HCC-2998 colon, in the assay on PC-3 prostate and in the assay on A549 NSCLC was more than 10 µM in each case.

`O=c1[nH]c2cc3cccnc3c(Cl)c2nc1C(F)(F)F`: the TGI with OVCAR-8 ovarian was more than 100 µM; with SR leukemia, more than 100 µM; in the assay on MCF7 breast it was more than 100 µM; with A498 renal it was more than 100 µM; with CAKI-1 renal it was 65.4 µM; in the assay with RPMI-8226 leukemia it was more than 100 µM. For the same compound, the TGI in the assay with MDA-N, with HCC-2998 colon, in the assay with PC-3 prostate and with A549 NSCLC was more than 100 µM each time.
